# Data taken from patent US20130123287A1, “CONTROL AGENT FOR SOFT ROT AND CONTROL METHOD FOR THE SAME” (ISHIHARA SANGYO KAISHA, LTD., priority 2010, published 2013).
# What was measured:
# [1] = system: soft rot of Chinese cabbage; assay: Test for controlling soft rot of Chinese cabbage, Example 2 / Comparative Example 2 (field, cultivar Harebutai 65); format: in vivo; details: 1/1000 dilution, 300 L/10a sprayed twice on stems and leaves, 64 days after start
# Description: Frequency of the disease=[sigma(number of plants with the onset of the disease at each severity level*index of the onset of the disease)/(plants examined*4)]*100
# Disease control value=[1-(frequency of the disease in the treated lot/frequency of the disease in the non-treated lot)]*100
# • 0: No onset • 1: Onset in some of outer leaves (shippable) • 2: Onset in outer leaves and some of head leaves (by removing damaged parts, the resulting cabbage can be shipped as small cabbage but is ranked as grade B). • 3: Most of head leaves are inflicted with the onset of the disease or with severer damages (not shippable) • 4: Whole cabbage plant is inflicted with the onset of the disease and is dead.
# 200 g/l Azoxystrobin (Amistar 20 FLOWABLE [trade name], manufactured by Syngenta Japan K.K.) was adjusted to 500 g ai/10a (0.5 g/m^2, 2500 ml Product/10a) as the amount of the active ingredient and to 150 L/10a as the volume of diluent water.
# 30% w/w triflumizol (TRIFUMIN WP [trade name], manufactured by Nippon Soda Co., Ltd.) was adjusted to 500 g ai/10a (0.5 g/m^2, 1667 g Product/10a) as the amount of the active ingredient and to 150 L/10a as the volume of diluent water.
# 100 g/1 cyazofamid (RANMAN PLOWABLE [trade name], manufactured by Ishihara Sangyo Kaisha, Ltd.) was adjusted to 500 g ai/10a (0.5 g/m^2, 5000 ml Product/10a) as the amount of the active ingredient and to 150 L/10a as the volume of diluent water.
# 50% w/w penthiopyrad (GAIA WG [trade name], manufactured by Mitsui Chemicals Agro, Inc.) was adjusted to 500 g ai/10a (0.5 g/m^2, 1000 g Product/10a) as the amount of the active ingredient and to 150 L/10a as the volume of diluent water.
# 50 g/l flusulfamide (SCABLOCK SC [trade name], manufactured by Mitsui Chemicals Agro, Inc.) was adjusted to 500 g ai/10a (0.5 g/m^2, 10000 ml Product/10a) as the amount of the active ingredient and to 150 L/10a as the volume of diluent water.
# 400 g/1 chlorothalonil (Daconil 1000 [the trade name], manufactured by Sumitomo Chemical, Limited) was adjusted to 1000 g ai/10a (1.0 g/m^2, 2500 ml Product/10a) as the amount of the active ingredient and to 150 L/10a as the volume of diluent water.
# After spreading an agricultural mulch-sheet and opening planting holes (diameter of about 5 cm) for permanent planting through the mulch-sheet, the spray solutions prepared as described above were sprayed onto the planting holes such that the amount of treated active ingredient of chlorothalonil was 1.0 g/m^2 (150 L per 10a) and the amount of each of the remaining spray solutions was 0.5 g/m^2 (150 L per 10a), followed by air-drying; subsequently, seedlings of Chinese cabbage (cultivar Harebutai 65) grown for 4 weeks in cell mold trays (128 holes/nursery box) were planted such that 19 seedlings were planted in each test lot having an area of 2.4 m^2 with two replications.
# Preparation was performed by diluting streptomycin (Mycin 20 wettable powder solution [under the trade name] manufactured by Hokko Chemical Industry Co., Ltd.) with water to 1/1000.
# In a field spread with the agricultural mulch-sheet, Chinese cabbage seedlings (cultivar: Harebutai 65) grown by the same method as in Example 2 were planted by the same method as in Example 2, for spraying the spray solution of streptomycin prepared above in (1) (at each spray volume of 300 L/10a) twice (27 days and 48 days after the planting of the seedlings) on the stems and leaves with a sprayer.
# 64 days after the start of the tests, all the plants in each lot were examined about the severity level of the disease to assess the frequency of the disease and the disease control value. In the same manner as described above, the frequency of the disease and the disease control value were determined. Additionally, soft rot is a disease with damages hardly controlled, so even a chemical at the level C determined by the tests of the effects can practically be used.
# [2] = system: bacteria causing the soft rot (Erwinia carotovora); assay: Inhibition test of growth of bacteria causing soft rot, Reference Test Example 4; format: cell-based; details: for formed colonies (growth state), grade: PSA medium, 27 degrees Celsius, 2 days
# Description: An inhibition test of the growth of bacteria causing the soft rot was done, when a control agent was directly applied to the bacteria causing the soft rot. A given volume of each pesticide of kresoxim-methyl (STROBY DF [trade name] manufactured by BASF), thiophanate methyl (Topsin M WP [trade name], manufactured by Nippon Soda Co., Ltd), boscalid (Cantus DF [trade name] manufactured by BASF), procymidone (Sumilex WP [trade name] manufactured by Sumitomo Chemical Agro Co., Ltd.) and streptomycin (Mycin Wettable powder [trade name] manufactured by Hokko Chemical Industry Co., Ltd.) was added together with a suspension of the bacteria causing the soft rot (Erwinia carotovora) to a preliminarily dissolved PSA culture medium (55 degrees Celsius) for subsequent thorough agitation, which was then spread on a plate for culturing at 27 degrees Celsius for 2 days, to examine the growth state. Subsequently, the formed colonies were examined according to the following three grades. • +: at the same level as the level of non-treated lot. Plus or minus: apparently less than the colonies of the non-treated lot. • −: almost no colonies observed.
compound,measurement,setting,value
[H]/N=C(/N)N[C@H]1[C@H](O)[C@@H](O)[C@H](O[C@@H]2O[C@@H](C)[C@](O)(C=O)[C@H]2O[C@@H]2O[C@@H](CO)[C@H](O)[C@@H](O)[C@@H]2NC)[C@@H](N/C(N)=N\[H])[C@@H]1O [Streptomycin],Determination of effect,[1],B (B: Effective (41 to 60 disease control value))
same,"formed colonies (growth state), grade",[2]; 1 ppm active ingredient,"−, −"
same,"formed colonies (growth state), grade",[2]; 10 ppm active ingredient,"−, −"
same,direct antibacterial activity against Erwinia carotovora (in words),[2]; active ingredient concentration of 1 ppm,exerted a direct antibacterial activity
